Structures are written as SMILES.

E3 (His-APC11/APC2-"APC"), sequence (Q9NYG5 whole entry): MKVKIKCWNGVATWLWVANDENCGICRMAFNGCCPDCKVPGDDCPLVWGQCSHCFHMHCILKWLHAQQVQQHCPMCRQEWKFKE
E3 (His-APC11/APC2-"APC"), sequence (Q9UJX6 whole entry): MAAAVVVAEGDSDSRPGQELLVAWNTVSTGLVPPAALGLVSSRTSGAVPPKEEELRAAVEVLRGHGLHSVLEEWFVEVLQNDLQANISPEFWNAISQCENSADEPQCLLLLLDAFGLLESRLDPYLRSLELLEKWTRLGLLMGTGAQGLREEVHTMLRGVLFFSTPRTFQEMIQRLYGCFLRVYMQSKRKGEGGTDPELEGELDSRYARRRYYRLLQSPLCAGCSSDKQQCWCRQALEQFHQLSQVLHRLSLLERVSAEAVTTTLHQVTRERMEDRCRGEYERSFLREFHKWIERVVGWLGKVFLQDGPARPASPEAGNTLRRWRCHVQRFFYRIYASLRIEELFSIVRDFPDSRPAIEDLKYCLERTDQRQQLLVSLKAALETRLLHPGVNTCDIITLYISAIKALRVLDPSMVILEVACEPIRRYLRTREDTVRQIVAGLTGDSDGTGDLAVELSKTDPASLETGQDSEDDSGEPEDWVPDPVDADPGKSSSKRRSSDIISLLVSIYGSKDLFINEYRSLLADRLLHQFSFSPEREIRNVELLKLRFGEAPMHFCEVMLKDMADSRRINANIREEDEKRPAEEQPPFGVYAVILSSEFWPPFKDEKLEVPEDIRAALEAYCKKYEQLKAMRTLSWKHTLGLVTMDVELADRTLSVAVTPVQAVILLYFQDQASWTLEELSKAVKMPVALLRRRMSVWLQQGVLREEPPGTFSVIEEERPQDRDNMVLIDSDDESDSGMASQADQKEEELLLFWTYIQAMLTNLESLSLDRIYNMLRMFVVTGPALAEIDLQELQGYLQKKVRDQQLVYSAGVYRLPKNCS

One assay has as its target E3 (His-APC11/APC2-"APC") (Homo sapiens, UniProt Q9NYG5+Q9UJX6). Briefly: Plate-based E3 ligase assay (APC FLAG), auto-ubiquitination. It counts as biochemical. The settings on record: 2 concentrations tested. On the set-up: key: “+” indicates that the compound exibits inhibitory activity; “−” indicates that low or no inhibitory activity was observed. How it is done:
E3 (His-APC11/APC2-“APC”) auto-ubiquitination was measured as described in U.S. patent application Ser. No. 09/826,312 (Publication No. US-2002-0042083-A1), which is incorporated herein in its entirety. Details of the protocol are described below. Activity in the presence of the compound was determined relative to a parallel control in which only DMSO was added. Values of the IC50 were typically determined using 6 or 8 different concentrations of the compound, although as few as 2 concentrations may be used to approximate the IC50 value.
Nickel-coated 96-well plates (Pierce 15242) were blocked for 1 hour with 100 μl of blocking buffer at room temperature. The plates were washed 4 times with 225 μl of 1×PBS and 80 μl of the reaction buffer were added that contained 100 ng/well of Flag-ubiquitin. To this, 10 μl of the test compound diluted in DMSO were added. After the test compound was added, 10 μl of E1 (human), E2 (Ubch5c), and APC in Protein Buffer was added to obtain a final concentration of 5 ng/well of E1, 20 ng/well of E2 and 100 ng/well of APC. The plate were shaken for 10 minutes and incubated at room temperature for 1 hour. After incubation, the plates were washed 4 times with 225 μl of 1×PBS and 100 μl/well of Antibody Mix were added to each well. The plates were incubate at room temperature for another hour after which they were washed 4 times with 225 μl of 1×PBS and 100 μl/well of Lumino substrate were added to each well. The luminescence was measured by using a BMG luminescence microplate reader.
To prepare the Blocking Buffer (1 liter; 1% Casein in 1×PBS), 10 grams of Casein (Hammersten Grade Casein from Gallard-Schlesinger Inc. #440203) were placed into 1 liter of 1×PBS, stirred on a hot plate and kept between 50-60° C. for an hour. The buffer was allowed to cool to room temperature and then filtered using a Buchner Funnel (Buchner filter funnel 83 mm 30310-109) and Whatman filter paper (Whatman Grade No. 1 Filter paper 28450-070). It was stored at 4° C. until used.
The reaction buffer consisted of 62.5 mM Tris pH 7.6 (Trizma Base—Sigma T-8524), 3 mM MgCl2 (Magnesium Chloride—Sigma M-2393), 1 mM DTT (Sigma D-9779), 2.5 mM ATP (Roche Boehringer Mann Corp. 635-316), 100 ng/well of Flag-ubiquitin, 0.1% BSA (Sigma A-7906), and 0.05% Tween-20 (Sigma P-7949).
The Protein Buffer consisted of 20 mM Tris pH 7.6, 10% glycerol (Sigma G-5516) and 1 mM DTT.
The antibody mix consisted of 0.25% BSA (Sigma A-7906) in 1×PBS, 1/50,000 anti-Flag (Sigma F-3165), 1/100,000 of anti-Mouse IgG-HRP (Jackson Immunoresearch #115-035-146).
The substrate mix consisted of SuperSignal Substrate from Pierce (catalog number 37070ZZ) and was prepared by mixing 100 ml of the peroxide solution, 100 ml of the enhancer solution and 100 ml of Milli-Q® water.
For the compound `CC(C)c1ccccc1NS(=O)(=O)c1cc(Cl)c(Oc2ccc([N+](=O)[O-])cc2Cl)c(Cl)c1` [Example 227, 3,5-dichloro-4-(2-chloro-4-nitrophenoxy)-N-(2-isopropylphenyl)benzenesulfonamide], the “APC Flag (2 pt)” value is given as “− (2 pt)”.

In the case of `CC(=O)c1cccc(NS(=O)(=O)c2cc(Cl)c(Oc3ccc([N+](=O)[O-])cc3Cl)c(Cl)c2)c1` [Example 186, N-(3-acetylphenyl)-3,5-dichloro-4-(2-chloro-4-nitrophenoxy)benzenesulfonamide], the “APC Flag (2 pt)” value is given as “− (2 pt)”.

For `O=S(=O)(Nc1cccc(Br)c1)c1ccc(Oc2ccc(F)cc2)cc1` [Example 187, N-(3-bromophenyl)-4-(4-fluorophenoxy) benzenesulfonamide], the “APC Flag (2 pt)” value was “− (2 pt)”.

The same assay, now with this note: 8 concentrations tested.
As to `Cc1c(Cl)cccc1N(S(=O)(=O)c1cc(Cl)c(Oc2ccc([N+](=O)[O-])cc2Cl)c(Cl)c1)S(=O)(=O)c1cc(Cl)c(Oc2ccc([N+](=O)[O-])cc2Cl)c(Cl)c1` [Example 143, 3,5-dichloro-N-(3-chloro-2-methylphenyl)-4-(2-chloro-4-nitrophenoxy)-N-(1,3-dichloro-2-(2-chloro-4-nitrophenoxy)-5-sulfonylbenzene)benzenesulfonamide], the “APC Flag 8 pt” value is reported as “+”.

On to `O=[N+]([O-])c1ccc(Oc2c(Cl)cc(S(=O)(=O)NCc3ccc(Cl)cc3)cc2Cl)c(Cl)c1` [Example 125, 3,5-dichloro-N-(4-chlorobenzyl)-4-(2-chloro-4-nitrophenoxy)benzenesulfonamide], for which the “APC Flag 8 pt” value is “−”.

With `O=C(Nc1cc(Cl)ccc1Cl)N1CCC(Oc2ccccc2C(F)(F)F)CC1` [Example 308, N-(2,5-dichlorophenyl)-4-(2-(trifluoromethyl)phenoxy)piperidine-1-carboxamide], the “APC Flag 8 pt” value is listed as “−”.

For the compound `CN(C)CCCNS(=O)(=O)c1cc(Cl)c(Oc2ccc([N+](=O)[O-])cc2Cl)c(Cl)c1` [Example 131], the “APC Flag 8 pt” value is recorded as “+”.

Regarding `O=[N+]([O-])c1ccc(Oc2c(Cl)cc(S(=O)(=O)Nc3cccc(F)c3F)cc2Cl)c(Cl)c1` [Example 239, 3,5-dichloro-4-(2-chloro-4-nitrophenoxy)-N-(2,3-difluorophenyl)benzenesulfonamide], the “APC Flag 8 pt” value is “+”.

Take `O=[N+]([O-])c1ccc(Oc2c(Cl)cc(S(=O)(=O)Nc3ccc(F)c(F)c3)cc2Cl)c(Cl)c1` [Example 197, 3,5-dichloro-4-(2-chloro-4-nitrophenoxy)-N-(3,4-difluorophenyl)benzenesulfonamide]: the “APC Flag 8 pt” value is on record as “+”.

On to `O=C(NCC1CC1)c1cccc(NS(=O)(=O)c2cc(Cl)c(Oc3ccc([N+](=O)[O-])cc3Cl)c(Cl)c2)c1` [Compound 151, N-(cyclopropylmethyl)-3-({[3,5-dichloro-4-(2-chloro-4-nitrophenoxy)phenyl]sulfonyl}amino)benzamide], for which the “APC Flag 8 pt” value is reported as “+”.

For the compound `O=C1CCC(CCCNS(=O)(=O)c2cc(Cl)c(Oc3ccc([N+](=O)[O-])cc3Cl)c(Cl)c2)N1` (centres unmarked) [Example 122, 3,5-dichloro-4-(2-chloro-4-nitrophenoxy)-N-[3-(5-oxopyrrolidin-2-yl)propyl] benzenesulfonamide], the “APC Flag 8 pt” value is “+”.

With `O=[N+]([O-])c1cccc(Cl)c1Oc1ccc(S(=O)(=O)Nc2cccc(Br)c2)cc1` [Example 183, N-(3-bromophenyl)-4-(2-chloro-6-nitro-phenoxy)benzenesulfonamide], the “APC Flag 8 pt” value is “−”.

Consider `N#Cc1ccc(N(S(=O)(=O)c2cc(Cl)c(Oc3ccc([N+](=O)[O-])cc3Cl)c(Cl)c2)S(=O)(=O)c2cc(Cl)c(Oc3ccc([N+](=O)[O-])cc3Cl)c(Cl)c2)cc1` [Example 136, 3,5-dichloro-4-(2-chloro-4-nitrophenoxy)-N-(4-cyanophenyl)-N-(1,3-dichloro-2-(2-chloro-4-nitrophenoxy)-5-sulfonylbenzene)-benzenesulfonamide], for which the “APC Flag 8 pt” value is reported as “+”.

On to `Cc1ccc(N(S(=O)(=O)c2cc(Cl)c(Oc3ccc([N+](=O)[O-])cc3Cl)c(Cl)c2)S(=O)(=O)c2cc(Cl)c(Oc3ccc([N+](=O)[O-])cc3Cl)c(Cl)c2)cc1` [Example 137, 3,5-dichloro-4-(2-chloro-4-nitrophenoxy)-N-(4-methylphenyl)-N-(1,3-dichloro-2-(2-chloro-4-nitrophenoxy)-5-sulfonylbenzene) benzenesulfonamide], for which the “APC Flag 8 pt” value is “+”.

For the compound `O=C(NCC1CC1)c1ccc(NS(=O)(=O)c2cc(Cl)c(Oc3ccc([N+](=O)[O-])cc3Cl)c(Cl)c2)cc1` [Example 152, N-(cyclopropylmethyl)-4-({[3,5-dichloro-4-(2-chloro-4-nitrophenoxy)phenyl]sulfonyl}amino)benzamide], the “APC Flag 8 pt” value is “+”.

In the case of `O=[N+]([O-])c1ccc(Oc2c(Cl)cc(S(=O)(=O)Nc3ccc4c(c3)OCO4)cc2Cl)c(Cl)c1` [Example 162, N-1,3-benzodioxol-5-yl-3,5-dichloro-4-(2-chloro-4-nitrophenoxy)benzenesulfonamide], the “APC Flag 8 pt” value is on record as “+”.

`O=[N+]([O-])c1ccc(Oc2c(Cl)cc(S(=O)(=O)NC(=S)Nc3cccnc3)cc2Cl)c(Cl)c1` [Example 158, 3,5-dichloro-4-(2-chloro-4-nitrophenoxy)-N-[(pyridin-3-ylamino)carbonothioyl] benzenesulfonamide]: the “APC Flag 8 pt” value is “−”.

As to `N#Cc1cccc(NS(=O)(=O)c2cc(Cl)c(Oc3ccc([N+](=O)[O-])cc3Cl)c(Cl)c2)c1` [Example 169, 3,5-dichloro-4-(2-chloro-4-nitrophenoxy)-N-(3-cyanophenyl)benzenesulfonamide], the “APC Flag 8 pt” value is “+”.

For the compound `O=[N+]([O-])c1cccc(Cl)c1Oc1ccc(S(=O)(=O)Nc2ccc(F)c(Cl)c2)cc1` [Example 185, N-(3-chloro-4-fluorophenyl)-4-(2-chloro-6-nitrophenoxy)benzenesulfonamide], the “APC Flag 8 pt” value was “−”.

For the compound `O=[N+]([O-])c1ccc(Oc2c(Cl)cc(S(=O)(=O)Nc3cc(OC(F)(F)F)ccc3Br)cc2Cl)c(Cl)c1` [Example 293, N-(2-bromo-5-(trifluoromethoxy)phenyl)-3,5-dichloro-4-(2-chloro-4-nitrophenoxy)benzenesulfonamide], the “APC Flag 8 pt” value is “+”.

Take `O=[N+]([O-])c1ccc(Oc2c(Cl)cc(S(=O)(=O)NCCCOc3cc(Cl)cc(Cl)c3)cc2Cl)c(Cl)c1` [Example 126, 3,5-dichloro-4-(2-chloro-4-nitrophenoxy)-N-[3-(3,5-dichlorophenoxy)propyl] benzenesulfonamide]: the “APC Flag 8 pt” value is reported as “−”.

As for `Cc1cc(C)c(NS(=O)(=O)c2cc(Cl)c(Oc3ccc([N+](=O)[O-])cc3Cl)c(Cl)c2)c(C)c1` [Example 144, 3,5-dichloro-4-(2-chloro-4-nitrophenoxy)-N-mesitylbenzenesulfonamide], the “APC Flag 8 pt” value was “+”.

In the case of `Cc1c(Cl)cccc1NS(=O)(=O)c1ccc(Oc2c(Cl)cccc2[N+](=O)[O-])cc1` [Example 184, N-(3-chloro-2-methylphenyl)-4-(2-chloro-6-nitrophenoxy)benzenesulfonamide], the “APC Flag 8 pt” value is on record as “−”.

On to `O=[N+]([O-])c1ccc(Oc2c(Cl)cc(S(=O)(=O)NCC3CC3)cc2Cl)c(Cl)c1` [Compound 120, N-(Cyclopropylmethyl)-3,5-Dichloro-4-(2-Chloro-4-Nitrophenoxy) Benzenesulfonamide], for which the “APC Flag 8 pt” value was “+”.

As for `COc1cccc(NS(=O)(=O)c2cc(Cl)c(Oc3ccc([N+](=O)[O-])cc3Cl)c(Cl)c2)c1` [Example 163, 3,5-dichloro-4-(2-chloro-4-nitrophenoxy)-N-(3-methoxyphenyl)benzenesulfonamide], the “APC Flag 8 pt” value is recorded as “+”.

With `CC(=O)N(C(C)=O)c1ccc(Oc2c(Cl)cc(S(=O)(=O)Nc3cccc(Cl)c3)cc2Cl)c(Cl)c1` [Example 280, N-acetyl-N-[3-chloro-4-(2,6-dichloro-4-{[(3-chlorophenyl)amino]sulfonyl}phenoxy)phenyl]acetamide], the “APC Flag 8 pt” value is on record as “+”.
